Each structure is given as a SMILES string.

This experiment deals with GST-Xa-hAAK1 (Homo sapiens (Human), UniProt Q2M2I8). Nature of the experiment: AAK1 Kinase Assay. Particulars: bacterially expressed GST-Xa-hAAK1 3.5 nM; ATP 22 μM; fluoresceinated peptide 1.5 μM; 3 hours at room temperature; Caliper LabChip 3000. The format is biochemical. The procedure: The assays were performed in U-bottom 384-well plates. […] The reactions were initiated by the combination of bacterially expressed, GST-Xa-hAAK1 with substrates and test compounds. The reactions were incubated at room temperature for 3 hours and terminated by adding 60 μl of 35 mM EDTA buffer to each sample. The reactions were analyzed on the Caliper LabChip 3000 (Caliper, Hopkinton, Mass.) by electrophoretic separation of the fluorescent substrate and phosphorylated product. […] Compounds were dissolved at 10 mM in dimethylsulfoxide (DMSO) and evaluated at eleven concentrations. IC50 values were derived by non-linear regression analysis.
GST-Xa-hAAK1, sequence (Q2M2I8 whole entry): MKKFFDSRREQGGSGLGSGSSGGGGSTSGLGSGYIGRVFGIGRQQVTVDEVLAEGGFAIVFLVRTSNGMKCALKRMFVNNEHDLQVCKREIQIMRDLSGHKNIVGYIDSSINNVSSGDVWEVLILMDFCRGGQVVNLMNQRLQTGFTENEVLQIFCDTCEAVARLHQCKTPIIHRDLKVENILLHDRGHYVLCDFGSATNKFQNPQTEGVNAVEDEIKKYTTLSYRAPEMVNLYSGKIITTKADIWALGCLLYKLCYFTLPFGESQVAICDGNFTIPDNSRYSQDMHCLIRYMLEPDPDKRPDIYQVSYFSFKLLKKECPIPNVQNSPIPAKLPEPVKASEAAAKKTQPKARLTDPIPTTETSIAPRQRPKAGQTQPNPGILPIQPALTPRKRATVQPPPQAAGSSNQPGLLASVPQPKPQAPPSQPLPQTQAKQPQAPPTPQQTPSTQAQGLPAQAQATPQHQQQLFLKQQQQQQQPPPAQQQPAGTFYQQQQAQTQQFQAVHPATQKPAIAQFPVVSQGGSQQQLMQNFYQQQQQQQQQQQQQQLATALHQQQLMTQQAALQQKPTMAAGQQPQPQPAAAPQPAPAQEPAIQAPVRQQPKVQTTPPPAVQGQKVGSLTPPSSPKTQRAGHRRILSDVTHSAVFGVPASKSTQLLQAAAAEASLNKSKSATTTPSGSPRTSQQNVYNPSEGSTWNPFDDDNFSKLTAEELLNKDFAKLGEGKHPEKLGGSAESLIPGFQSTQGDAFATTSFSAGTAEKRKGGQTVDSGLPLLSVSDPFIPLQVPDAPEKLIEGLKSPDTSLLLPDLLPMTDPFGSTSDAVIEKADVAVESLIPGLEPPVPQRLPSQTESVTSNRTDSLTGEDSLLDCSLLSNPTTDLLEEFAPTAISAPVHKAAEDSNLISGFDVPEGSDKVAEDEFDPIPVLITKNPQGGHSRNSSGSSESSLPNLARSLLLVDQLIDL

As for `CC(C)C[C@](C)(N)COc1ccc(-c2ccnc(C(F)F)c2)nc1CF` [Example 325, (S)-1-((2′-(difluoromethyl)-6-(fluoromethyl)-[2,4′-bipyridin]-5-yl)oxy)-2,4-dimethylpentan-2-amine], the IC50 amounted to 1.8 nM. `CC(C)CC1(COc2ccc(-c3ccnc(C(F)F)c3)nc2C(F)F)CCN1` (stereo not drawn) [Example 326, 2′,6-bis(difluoromethyl)-5-((2-isobutylazetidin-2-yl)methoxy)-2,4′-bipyridine]: the IC50 came out at 42 nM. `Cc1cc2c(-c3ccc(OC[C@@](C)(N)CC(C)C)c(C(F)(F)F)c3)ccnc2[nH]1` [Example 327, (S)-2,4-dimethyl-1-(4-(2-methyl-1H-pyrrolo[2,3-b]pyridin-4-yl)-2-(trifluoromethyl)phenoxy)pentan-2-amine]: the concentration for half-maximal inhibition (IC50) is 0.8 nM. As for `Cc1cc2c(-c3ccc(OC[C@@](C)(N)CC(C)C)c(C#N)c3)ccnc2[nH]1` [Example 328, (S)-2-((2-amino-2,4-dimethylpentyl)oxy)-5-(2-methyl-1H-pyrrolo[2,3-b]pyridin-4-yl)benzonitrile], the 50% inhibitory concentration (IC50) worked out at 0.4 nM. Consider `Cc1nccc(-c2ccc(OC[C@@](C)(N)CC(C)C)c(C)c2)n1` [Example 329, (S)-2,4-dimethyl-1-(2-methyl-4-(2-methylpyrimidin-4-yl)phenoxy)pentan-2-amine], for which the IC50 worked out at 2.4 nM. The value for `Cc1cc(-c2ccnc(C(F)(F)F)n2)ccc1OC[C@@](C)(N)CC(C)C` [Example 330, (S)-2,4-dimethyl-1-(2-methyl-4-(2-(trifluoromethyl)pyrimidin-4-yl)phenoxy)pentan-2-amine] was 7.3 nM. On to `CC(C)C[C@](C)(N)COc1ccc(-c2ccnc(C(F)(F)F)n2)cc1F` [Example 331, (S)-1-(2-fluoro-4-(2-(trifluoromethyl)pyrimidin-4-yl)phenoxy)-2,4-dimethylpentan-2-amine], for which the IC50 worked out at 45 nM. `CC(C)C[C@](C)(N)COc1ccc(-c2ccnc(C(C)C)n2)cc1F` [Example 337, (S)-1-(2-fluoro-4-(2-isopropylpyrimidin-4-yl)phenoxy)-2,4-dimethylpentan-2-amine]: the IC50 came out at 886 nM. Turning to `Cc1nc(-c2cc(N)ncn2)ccc1OC[C@@](C)(N)CC(C)C` [Example 343, (S)-6-(5-((2-amino-2,4-dimethylpentyl)oxy)-6-methylpyridin-2-yl)pyrimidin-4-amine], the IC50 came out at 19 nM. With `Cc1cc(-c2ccnc(F)c2)ncc1OC[C@@](C)(N)CC(C)C` [Example 344, (S)-1-((2′-fluoro-4-methyl-[2,4′-bipyridin]-5-yl)oxy)-2,4-dimethylpentan-2-amine], the IC50 stood at 26 nM. In the case of `Cc1nc(-c2ccnc(C(F)(F)F)c2)ccc1OC[C@@](C)(N)CC(C)C` [Example 348, (S)-2,4-dimethyl-1-((6-methyl-2′-(trifluoromethyl)-[2,4′-bipyridin]-5-yl)oxy)pentan-2-amine], the IC50 turned out to be 512 nM.

As to `Cc1cc(-c2ccnc(C(F)(F)F)c2)ncc1OC[C@@](C)(N)CC(C)C` [Example 349, (S)-2,4-dimethyl-1-((4-methyl-2′-(trifluoromethyl)-[2,4′-bipyridin]-5-yl)oxy)pentan-2-amine], the IC50 stood at 70 nM. With `Cc1cc(-c2ccc(OC[C@@](C)(N)CC(C)C)c(C(F)F)c2)ncn1` [Example 350, (S)-1-(2-(difluoromethyl)-4-(6-methylpyrimidin-4-yl)phenoxy)-2,4-dimethylpentan-2-amine], the IC50 was 39 nM. The value for `Cc1nccc(-c2ccc(OC[C@@](C)(N)CC(C)C)c(CF)c2)n1` [Example 352, (S)-1-(2-(fluoromethyl)-4-(2-methylpyrimidin-4-yl)phenoxy)-2,4-dimethylpentan-2-amine] was 1.4 nM. For `Cc1nccc(-c2ccc(OC[C@](C)(N)CC(C)C)c(C)n2)n1` [Example 354, (R)-2,4-dimethyl-1-((2-methyl-6-(2-methylpyrimidin-4-yl)pyridin-3-yl)oxy)pentan-2-amine], the IC50 was 321 nM.

In the case of `CC(C)C[C@](C)(N)COc1ccc(-c2ccnc(CF)c2)nc1C(F)F` [Example 355, (S)-1-((6-(difluoromethyl)-2′-(fluoromethyl)-[2,4′-bipyridin]-5-yl)oxy)-2,4-dimethylpentan-2-amine], the IC50 came out at 1.1 nM. For `CC(C)C[C@](C)(N)COc1ccc(-c2ccnc(C(F)(F)F)c2)nc1C(F)F` [Example 356, (S)-1-((6-(difluoromethyl)-2′-(trifluoromethyl)-[2,4′-bipyridin]-5-yl)oxy)-2,4-dimethylpentan-2-amine] the value was 82 nM; for `Cc1cc(-c2ccnc(Cl)n2)ccc1OC[C@@](C)(N)CC(C)C` [Example 367, (S)-1-(4-(2-chloropyrimidin-4-yl)-2-methylphenoxy)-2,4-dimethylpentan-2-amine], 4.5 nM; for `CC(C)C[C@](C)(N)COc1ccc(-c2ccnc(Cl)n2)cc1C(F)(F)F` [Example 370, (S)-1-(4-(2-chloropyrimidin-4-yl)-2-(trifluoromethyl)phenoxy)-2,4-dimethylpentan-2-amine], 1.4 nM. Take `COC(=O)Nc1nccc(-c2cnc(OC[C@](C)(N)CC(C)C)c(C)c2)n1` [Example 372, (R)-methyl (4-(6-((2-amino-2,4-dimethylpentyl)oxy)-5-methylpyridin-3-yl)pyrimidin-2-yl)carbamate]: the IC50 was 236 nM. With `COC(=O)Nc1nccc(-c2cnc(OC[C@](C)(N)CC(C)C)c(F)c2)n1` [Example 373, (R)-methyl (4-(6-((2-amino-2,4-dimethylpentyl)oxy)-5-fluoropyridin-3-yl)pyrimidin-2-yl)carbamate], the IC50 amounted to 684 nM. Regarding `COC(=O)Nc1nccc(-c2cnc(OC[C@@](C)(N)CC(C)C)cc2C)n1` [Example 374, (S)-methyl (4-(6-((2-amino-2,4-dimethylpentyl)oxy)-4-methylpyridin-3-yl)pyrimidin-2-yl)carbamate], the IC50 is 339 nM. For `COC(=O)Nc1nccc(-c2cnc(OC[C@@](C)(N)CC(C)C)c(Cl)c2)n1` [Example 375, (S)-methyl (4-(6-((2-amino-2,4-dimethylpentyl)oxy)-5-chloropyridin-3-yl)pyrimidin-2-yl)carbamate] the value was 2.6 nM; for `CC(C)C[C@](C)(N)COc1ccc(-c2ccnc(Cl)n2)cc1C#N` [Example 378, (S)-2-((2-amino-2,4-dimethylpentyl)oxy)-5-(2-chloropyrimidin-4-yl)benzonitrile], 1.4 nM; for `COC(=O)Nc1nccc(-c2cnc(OC[C@@](C)(N)CC(C)C)c(C)c2)n1` [Example 379, (S)-methyl (4-(6-((2-amino-2,4-dimethylpentyl)oxy)-5-methylpyridin-3-yl)pyrimidin-2-yl)carbamate], 35 nM. With `COc1cc(-c2ccc(OC[C@@](C)(N)CC(C)C)c(C(F)F)c2)ccn1` [Example 383, (S)-1-(2-(difluoromethyl)-4-(2-methoxypyridin-4-yl)phenoxy)-2,4-dimethylpentan-2-amine], the IC50 was found to be 2 nM.

As for `Cc1cc(-c2ccc(OC[C@@](C)(N)CC(C)C)c(C)c2)ncn1` [Example 384, (S)-2,4-dimethyl-1-(2-methyl-4-(6-methylpyrimidin-4-yl)phenoxy)pentan-2-amine], the IC50 was found to be 46 nM. As for `COc1cc(-c2cnc(OC[C@@](C)(N)CC(C)C)c(C#N)c2)ccn1` [Example 385, (S)-6-((2-amino-2,4-dimethylpentyl)oxy)-2′-methoxy-[3,4′-bipyridine]-5-carbonitrile], the half-maximal inhibitory concentration (IC50) turned out to be 50 nM. For `COc1cc(-c2ccc(OC[C@@](C)(N)CC(C)C)c(C)c2)ccn1` [Example 386, (S)-1-(4-(2-methoxypyridin-4-yl)-2-methylphenoxy)-2,4-dimethylpentan-2-amine], the IC50 amounted to 13 nM. For `Cc1cc(-c2ccc(OC[C@@](C)(N)CC(C)C)c(CF)n2)ncn1` [Example 387, (S)-1-((2-(fluoromethyl)-6-(6-methylpyrimidin-4-yl)pyridin-3-yl)oxy)-2,4-dimethylpentan-2-amine] the value was 1010 nM. In the case of `COC(=O)Nc1nccc(-c2ccc(OC[C@@](C)(N)CC(C)C)c(CF)n2)n1` [Example 388, (S)-methyl (4-(5-((2-amino-2,4-dimethylpentyl)oxy)-6-(fluoromethyl)pyridin-2-yl)pyrimidin-2-yl)carbamate], the half-maximal inhibitory concentration (IC50) worked out at 4.7 nM. Regarding `CC(C)CC(=O)Nc1cc(-c2ccc(OC[C@@](C)(N)CC(C)C)c(C(F)(F)F)c2)ccn1` [Example 395, (S)-N-(4-(4-((2-amino-2,4-dimethylpentyl)oxy)-3-(trifluoromethyl)phenyl)pyridin-2-yl)-3-methylbutanamide], the IC50 worked out at 0.7 nM. With `CCC(C)CC(=O)Nc1cc(-c2ccc(OC[C@@](C)(N)CC(C)C)c(C(F)(F)F)c2)ccn1` (stereo partly drawn) [Example 396, N-(4-(4-(((S)-2-amino-2,4-dimethylpentyl)oxy)-3-(trifluoromethyl)phenyl)pyridin-2-yl)-3-methylpentanamide], the half-inhibitory concentration (IC50) was found to be 1.6 nM. With `CC(C)CCC(=O)Nc1cc(-c2ccc(OC[C@@](C)(N)CC(C)C)c(C(F)(F)F)c2)ccn1` [Example 397, (S)-N-(4-(4-((2-amino-2,4-dimethylpentyl)oxy)-3-(trifluoromethyl)phenyl)pyridin-2-yl)-4-methylpentanamide], the IC50 was found to be 0.7 nM. For `Cc1nc(-c2ccnc(N)c2)ccc1OC[C@@](C)(N)CC(C)C` [Example 422, (S)-5-((2-amino-2,4-dimethylpentyl)oxy)-6-methyl-[2,4′-bipyridin]-2′-amine] the value was 3.5 nM; for `Cc1cc(-c2cc(N)ncn2)ccc1OC[C@@](C)(N)CC(C)C` [Example 431, (S)-6-(4-((2-amino-2,4-dimethylpentyl)oxy)-3-methylphenyl)pyrimidin-4-amine], 5.4 nM.

The record behind these values is patent US10544120B2, “Biaryl kinase inhibitors” (BRISTOL-MYERS SQUIBB COMPANY, priority 2015, dated 2020).
